According to patent US20180243273A1, “Composition for Intravesical Administration for Treating Bladder Pain” (priority 2017, published 2018):

Test: Stability after autoclaving
Type: physicochemical
Conditions: 121° C. and 2 bar for 20 min
Method: The stability of the pharmaceutical composition was assessed by means of autoclaving experiments, where the compositions were treated at 121° C. and 2 bar for 20 min.
Autoclaving experiments were performed with the aim to evaluate the stability of API in defined buffer systems and excipients. Clear glass covered by aluminium foil was chosen as primary packaging as it provided sufficient light protection for the material and was expected to provide a smaller risk of interaction than amber glass. The batches were autoclaved at 121° C. and 2 bar for 20 min, following analysis of impurity profiles.

CN(C)[C@]1(c2cccc(F)c2)CC[C@]2(CC1)c1[nH]c3ccccc3c1CCN2C(=O)/C=C/c1ccccc1 [API, cis-(E)-4-(3-fluorophenyl)-2′,3′,4′,9′-tetrahydro-N,N-dimethyl-2′-(1-oxo-3-phenyl-2-propenyl)-spiro[cyclohexane-1,1′[1H]-pyrido[3,4-b]indol]-4-amine]
degradation of API after autoclaving (citrate buffer and SLS): highest degradation | degradation of API after autoclaving (phosphate buffer and vitamin E TPGS): lowest degradation
